From patent US7910593B2, “Water-soluble prodrugs” (Chugai Seiyaku Kabushiki Kaisha, priority 2004, dated 2011)

Experiments:
[1] = tested on: human colon cancer cell line HCT116; experiment: Test Example 4: antitumor effect in HCT116 tumor-bearing nude mice; format: in vivo, BALB/c nude mice; details: once per week for three weeks
Protocol: Antitumor effects were determined for representative examples of the group of compounds of the present invention. Tumor-bearing mice were generated by subcutaneous transplantation of human colon cancer cell line HCT116 obtained from American Type Culture Collection (Virginia, USA) into the right flank of BALB/c nude mice purchased from Charles River Japan, and used for determination of antitumor effects.
After a one-week quarantine period, the purchased nude mice were subjected to subcutaneous transplantation of 5×10^6 HCT116 cells at their right flank. Mice with a tumor size reaching 200 mm^3 or so were subjected to the experiment.
The compounds were dissolved in 1 mM citric bufferes saline, pH 4, and administered intravenously. The administration was carried out once per week for three weeks, for a total of three administrations. The antitumor effect was determined as tumor growth inhibition (TGI) using the following equation. Tumor growth inhibition (TGI) (%)={(1−mean tumor volume change in the drug-treated group/mean tumor volume change in the control group)×100} The results are shown in Table 6.

[2] = Test Example 5: conversion of compound 2A into activated form in human sera; format: in vitro ADME; details: for compound 2A (measured values, %): Test Example 5, human sera, 50 μM, 37° C.
Protocol: (§1) The percentages of compound 2A produced in Example 2 being converted into an activated form in sera of humans, rats, mice, monkeys, and dogs were determined. The activated form is in a rapid equilibrium between the lactone form and the carboxylate form, which were quantified separately.
(§2) Compound 2A was incubated at 37° C. at a concentration of 50 μM in sera of humans, mice, rats, monkeys, and dogs. Incubation was terminated at a given time (0, 30, 60, 120, and 360 minutes), and the samples were analyzed by HPLC after deproteinization treatments.
(§3) Conditions for the HPLC analysis are as follows: • HPLC conditions • Column: Develosil C30-UG-3, 3 μm, 35×4.6 mm I.D • Column Temperature: constant temperature at approximately 25° C. • Mobile phase: A: 10 mM phosphate buffer (pH4.7) • B: acetonitrile • /B (min): 90/10(0)→90/10(0.4)→40/60(6)→2/98(8)→90/10(9)→90/10(15) • Flow rate: 1.0 mL/min • Detection: photodiode array detector, detection wavelength 350 nm • Amount injected: 30 μL
(§4) Generally, camptothecins in solution are in a rapid equilibrium between a structure in which the carbonyl at position 3 forms a 6-membered cyclic ester with the oxygen at position 2, and its open-ring structure. The lactone form refers to the former condition and the carboxylate form refers to the latter condition.

[3] = Test Example 1: conversion of compound 2A into activated form in mouse serum; format: in vitro ADME; details: for compound 2A (measured values, %): mouse serum, 50 μM, 37° C.
Protocol: (§5) The percentages of compound 2A produced in Example 2 being converted into an activated form in sera of humans, mice, monkeys, and dogs were determined. The activated form is in a rapid equilibrium between the lactone form and the carboxylate form, which were quantified separately.
(§6) Compound 2A was incubated at 37° C. at a concentration of 50 μM in sera of humans, mice, monkeys, and dogs. Incubation was terminated at a given time (0, 30, 60, 120, and 360 minutes), and the samples were analyzed by HPLC after deproteinization treatments.
(§7) Conditions for the HPLC analysis are as follows: • HPLC conditions • Column: Develosil C30-UG-3, 3 μm, 50×4.6 mm I.D • Column Temperature: constant temperature at approximately 25° C. • Mobile phase: A: 10 mM phosphate buffer (pH4.7) • B: acetonitrile • /B (min): 90/10(0)→90/10(0.4)→40/60(6)→2/98(8)→90/10(9)→90/10(15)
(§8) Flow rate: 1.0 mL/min • Detection: photodiode array detector, detection wavelength 350 nm • Amount injected: 30 μL
as §4

[4] = Test Example 1: conversion of compound 2A into activated form in dog serum; format: in vitro ADME; details: for compound 2A (measured values, %): dog serum, 50 μM, 37° C.
Protocol: as §5, §6, §7, §8, §4

[5] = Test Example 5: conversion of compound 2A into activated form in dog sera; format: in vitro ADME; details: for compound 2A (measured values, %): Test Example 5, dog sera, 50 μM, 37° C.
Protocol: as §1, §2, §3, §4

[6] = Test Example 1: conversion of compound 2A into activated form in human serum; format: in vitro ADME; details: for compound 2A (measured values, %): human serum, 50 μM, 37° C.
Protocol: as §5, §6, §7, §8, §4

[7] = Test Example 5: conversion of compound 2A into activated form in monkey sera; format: in vitro ADME; details: for compound 2A (measured values, %): Test Example 5, monkey sera, 50 μM, 37° C.
Protocol: as §1, §2, §3, §4

For `CCCCCN1C=Nc2cccc3nc4c(c1c23)Cn1c-4cc2c(c1=O)COC(=O)[C@@]2(CC)OC(=O)CN(C)C(=O)CN.Cl` [Compound 2A, (9S)-9-Ethyl-9-(glycyl-sarcosyloxy)-1-pentyl-1H,12H-pyrano[3″,4″:6′,7′]indolizino[1′,2′:6,5]pyrido[4,3,2-de]quinazoline-10,13(9H,15H)-dione hydrochloride], the “TGI (%) on Day 21” value ([1]; 0.9 mg/kg intravenously) was 45%, the “TGI (%) on Day 21” value ([1]; 1.9 mg/kg intravenously) was 52% and the “TGI (%) on Day 21” value ([1]; 3.75 mg/kg intravenously) was 72%. The “TGI (%) on Day 21” value ([1]; 7.5 mg/kg intravenously) was 74%, the “TGI (%) on Day 21” value ([1]; 15 mg/kg intravenously) was 85% and the “TGI (%) on Day 21” value ([1]; 30 mg/kg intravenously) was 97%. For the same molecule, the “TGI (%) on Day 21” value ([1]; 60 mg/kg intravenously) was 110%, the “compound 2A (measured values, %)” value ([2]; incubation 0 minutes) was 0% and the “compound 2A (measured values, %)” value ([2]; incubation 30 minutes) was 0%. For the same molecule, the “compound 2A (measured values, %)” value ([2]; incubation 60 minutes) was 0%, the “compound 2A (measured values, %)” value ([2]; incubation 120 minutes) was 0% and the “compound 2A (measured values, %)” value ([2]; incubation 360 minutes) was 0%. For the same molecule, the “conversion to the lactone form (in words)” value (from here on “conversion”) ([2]; human sera, Test Example 5) was “quickly converted to the lactone form”, the “conversion” value ([3]; mouse sera, Test Example 1) was “quickly converted to the lactone form” and the “compound 2A (measured values, %)” value ([3]; incubation 0 minutes) was 0%. The “compound 2A (measured values, %)” value ([3]; incubation 30 minutes) was 0%, the “compound 2A (measured values, %)” value ([3]; incubation 60 minutes) was 0% and the “compound 2A (measured values, %)” value ([3]; incubation 120 minutes) was 0%. For the same molecule, the “compound 2A (measured values, %)” value ([3]; incubation 360 minutes) was 0%, the “conversion” value ([4]; dog sera, Test Example 1) was “quickly converted to the lactone form” and the “compound 2A (measured values, %)” value ([4]; incubation 0 minutes) was 0%. The “compound 2A (measured values, %)” value ([4]; incubation 30 minutes) was 0%, the “compound 2A (measured values, %)” value ([4]; incubation 60 minutes) was 0% and the “compound 2A (measured values, %)” value ([4]; incubation 120 minutes) was 0%. For the same molecule, the “compound 2A (measured values, %)” value ([4]; incubation 360 minutes) was 0%, the “compound 2A (measured values, %)” value ([5]; incubation 0 minutes) was 0% and the “compound 2A (measured values, %)” value ([5]; incubation 30 minutes) was 0%. For the same molecule, the “compound 2A (measured values, %)” value ([5]; incubation 60 minutes) was 0%, the “compound 2A (measured values, %)” value ([5]; incubation 120 minutes) was 0% and the “compound 2A (measured values, %)” value ([5]; incubation 360 minutes) was 0%. The “conversion” value ([5]; dog sera, Test Example 5) was “quickly converted to the lactone form”, the “conversion” value ([6]; human sera, Test Example 1) was “quickly converted to the lactone form” and the “compound 2A (measured values, %)” value ([6]; incubation 0 minutes) was 0%. The “compound 2A (measured values, %)” value ([6]; incubation 30 minutes) was 0%, the “compound 2A (measured values, %)” value ([6]; incubation 60 minutes) was 0% and the “compound 2A (measured values, %)” value ([6]; incubation 120 minutes) was 0%. The “compound 2A (measured values, %)” value ([6]; incubation 360 minutes) was 0%, the “compound 2A (measured values, %)” value ([7]; incubation 0 minutes) was 0% and the “compound 2A (measured values, %)” value ([7]; incubation 30 minutes) was 0%. For the same molecule, the “compound 2A (measured values, %)” value ([7]; incubation 60 minutes) was 0%, the “compound 2A (measured values, %)” value ([7]; incubation 120 minutes) was 0% and the “compound 2A (measured values, %)” value ([7]; incubation 360 minutes) was 0%. The “conversion” value ([7]; monkey sera, Test Example 5) was “quickly converted to the lactone form”.
